Where a SMILES comes first, the peptide text is derived from it. The star is where a group is joined. Cbz = O=C(OCc1ccccc1)*
What was measured:
[1] = tested on: B16F10 mouse melanoma cells; test: Melanin content in α-MSH-treated cells; format: cell-based; conditions: for influence on melanin content: co-treatment of inhibitor with β-mangostin and α-MSH; for melanin content reduction / change in melanin content: co-treatment with α-MSH, compared to α-MSH only; for melanin content reduction: 5 μM
Protocol: Measurement of melanin content was carried out by slightly modifying the method by Yang et al. (Yang et al., 2006, Acta pharmacologica Sinica 27, 1467-73). Specifically, B16F10 cells were inoculated into a 6-well plate and cultured for 24 hours. […] The cultured cells were collected after being subjected to trypsinization and dissolution in 1 N NaOH containing DMSO for 24 hours at 65° C. By using a microplate reader (Bio-Rad), melanin content was measured at 415 nm.
(§1) As a result, as it is shown in FIG. 3, cell pellets were turned into black color when the treatment is carried out with α-MSH only. […] Namely, it was shown that β-mangostin suppresses the pigmentation induced by α-MSH. […] In particular, when the treatment is carried out with β-mangostin at 5 μM, which is the same concentration as α-mangostin, melanin content was reduced by 40% or so.

tyrosinase [2] = test: Tyrosinase expression (RT-PCR and Western blotting); format: cell-based, mouse; conditions: for effect on the suppressed tyrosinase expression induced by β-mangostin: autophagy inhibitor with β-mangostin and α-MSH
Protocol: (§2) Total RNA was extracted from the cells by using RiboEX reagent (GeneAll Biotechnology Co. Ltd, Seoul, South Korea). cDNA was synthesized by using 2 μg of RNA based on reverse transcription (Thermo Scientific, Waltham, MA, USA). PCR was carried out by using Solg™ e-Taq DNA polymerase kit (SolGent Co. Ltd, Daejeon, South Korea), and each primer described in the following Table 1 was used for PCR.
Total proteins were extracted by using RIPA dissolving buffer (50 mM Tris-HCl (pH 8.0), 150 mM NaCl, 1% NP-40, 0.5% sodium dioxycholate and 0.1% SDS). […] The membrane was then incubated with 5% skim milk and primary antibody for 1 hour in TBS (tris-buffer saline) containing 0.1% Tween 20. The antibodies against tyrosinase and TRP-1 were purchased from Santa Cruz Biotechnology, USA. LC3B, p62 and ATG5 were purchased from CST (Cell Signaling Technology, USA). The antibody against PMEL was purchased from Abcam (UK). Signal detection was made based on enhanced chemiluminescence (Bio-Rad).

[3] = tested on: p62 and PMEL (premelanosome protein); test: p62 and PMEL expression (Western blot); format: cell-based, mouse; conditions: for effect on the suppressed expression of p62 and PMEL induced by β-mangostin: autophagy inhibitor with β-mangostin and α-MSH
Protocol: (§3) Total proteins were extracted by using RIPA dissolving buffer (50 mM Tris-HCl (pH 8.0), 150 mM NaCl, 1% NP-40, 0.5% sodium dioxycholate and 0.1% SDS). The proteins were separated on a 10 to 15% SDS-PAGE, and transferred to a PVDF membrane (Millipore, Billerica, MA, USA). The membrane was then incubated with 5% skim milk and primary antibody for 1 hour in TBS (tris-buffer saline) containing 0.1% Tween 20. The antibodies against tyrosinase and TRP-1 were purchased from Santa Cruz Biotechnology, USA. LC3B, p62 and ATG5 were purchased from CST (Cell Signaling Technology, USA). The antibody against PMEL was purchased from Abcam (UK). Signal detection was made based on enhanced chemiluminescence (Bio-Rad).
Autophagy occurs through a fusion process between an autophagosome and a lysosome. In order to confirm whether or not the depigmentation effect induced by β-mangostin occurs through lysosome-dependent protein degradation during the autophagy process, B16F10 cells were treated with bafilomycin A1 (liquid vacuole type, H^+-ATPase inhibitor) which inhibits β-mangostin, α-MSH, and lysosome activity. As a result, as it is shown in FIG. 7, bafilomycin A1 inhibits, at the aforementioned conditions, the suppressed tyrosinase expression that has been induced by β-mangostin.

tyrosinase [4] = target: T1, tyrosinase (Mus musculus, UniProt P11344); test: Tyrosinase activity (L-DOPA oxidation) in cell lysates; format: cell-based
T1 construct: The cultured cells were collected and dissolved with 1% Triton X-100 solution for 1 hour on ice; endogenous in cells; host or cells: B16F10 mouse melanoma cells
T1 sequence (P11344 19-533): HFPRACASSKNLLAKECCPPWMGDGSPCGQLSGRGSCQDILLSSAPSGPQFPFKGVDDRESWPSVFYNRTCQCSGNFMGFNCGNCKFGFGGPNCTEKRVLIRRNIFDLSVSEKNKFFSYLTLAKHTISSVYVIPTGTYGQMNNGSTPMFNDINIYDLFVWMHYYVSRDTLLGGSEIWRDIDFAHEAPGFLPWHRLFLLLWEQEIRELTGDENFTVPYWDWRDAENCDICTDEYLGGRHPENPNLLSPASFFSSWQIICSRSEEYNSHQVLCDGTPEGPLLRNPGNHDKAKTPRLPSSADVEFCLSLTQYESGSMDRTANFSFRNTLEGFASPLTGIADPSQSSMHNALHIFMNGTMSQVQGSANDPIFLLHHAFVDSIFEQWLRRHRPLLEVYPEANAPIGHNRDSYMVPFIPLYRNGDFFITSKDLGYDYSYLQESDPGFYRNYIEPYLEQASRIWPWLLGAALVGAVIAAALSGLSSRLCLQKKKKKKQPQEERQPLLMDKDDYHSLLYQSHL
Protocol: Tyrosinase activity was measured by slightly modifying the method by Ohgushi et al. (Ohgushi et al., 2009, Biological & Pharmaceutical Bulletin 32, 308-10). Specifically, B16F10 cells were inoculated into a 6-well plate and cultured for 24 hours. Thereafter, the cells were treated with β-mangostin and α-MSH, each at 1 μM, followed by culture for 48 hours. The cultured cells were collected and dissolved with 1% Triton X-100 solution for 1 hour on ice. The proteins were cultured with 100 μl (2 mg/ml) L-DOPA in a 5% CO2 humidifying incubator at 37° C. condition. By using a microplate reader (Bio-Rad), absorbance at 490 nm was measured.

[5] = tested on: B16F10 mouse melanoma cells; test: Cell viability (MTT analysis); format: cell-based; conditions: 24 hours, at 20 μM and 40 μM
Protocol: B16F10 cells were cultured for 24 hours in a 96-well plate. […] Subsequently, a MTT solution (5 μg/mL) was added to the cells, which were then cultured for 3 hours. After removing the medium and treating the cells with DMSO, the cells were cultured for 20 minutes. By using a microplate reader (Bio-Rad), absorbance at 595 nm was measured.
Then, based on MTT […]-(4,5-dimethylthiazol-2-yl)-2,5-diphenyltetrazolium bromide) analysis, cell viability was determined.

[6] = tested on: B16F10 mouse melanoma cells; test: Suppression of α-MSH-induced pigmentation (cell pellet color); format: cell-based; conditions: co-treatment with α-MSH, 72 hours
Protocol: as §1, with “In order to see whether or not β-mangostin can suppress the pigmentation induced by α-MSH (melanocyte-stimulating hormone), B16F10 cells were treated with α-MSH and β-mangostin followed by incubation for 72 hours. As” for “As”

[7] = tested on: TRP-1 (tyrosinase-related protein-1); test: TRP-1 expression (RT-PCR and Western blotting); format: cell-based, mouse; conditions: B16F10 cells
Protocol: as §2, §3
In order to confirm the whitening effect of β-mangostin, RT-PCR and Western blotting analysis were carried out for tyrosinase and TRP-1.

[8] = tested on: mRFP-EGFP-LC3B in B16F10 cells; test: Melanosome autophagy in cells expressing mRFP-EGFP-LC3B (confocal microscopy); format: cell-based, mouse; conditions: β-mangostin (10 μM) and α-MSH (1 μM)
Protocol: B16F10 cells were infected with mRFP-EGFP-LC3B (Kimura et al., 2007, Autophagy 3, 452-60) by using Lipofectamine 3000 (Invitrogen, Carlsbad, CA, USA). The cells were treated with β-mangostin (10 μM) and α-MSH (1 μM), and analysis was made by using confocal microscopy (FV1000, Olympus, Tokyo, Japan).
In order to confirm whether or not β-mangostin can induce the autophagy of a melanosome, B16F10 cells were infected with a construct expressing mRFP-EGFP-LC3B, and then treated with β-mangostin and α-MSH. […] On the other hand, the number of red spots increased in the group treated with both α-MSH and β-mangostin while total number of spots has decreased. If an autophagosome fuses with a lysosome only after wrapping the melanosome, the intra-autophagosomal pH should decrease, and EGFP should be abolished under acidic pH conditions. Accordingly, it was found from the above results that, due to the autophagy enhanced by β-mangostin, degradation of a melanosome has occurred.

[9] = tested on: B16F10 mouse melanoma cells; test: Removal of melanin previously produced by α-MSH; format: cell-based; conditions: treatment after 2 days of α-MSH
Protocol: In order to determine the activity of β-mangostin for removing melanin which has been previously produced by α-MSH as a melanin cell stimulating hormone, B16F10 cells were treated for 2 days with α-MSH to have synthesis of melanin. Thereafter, the cells were treated with β-mangostin of the present invention and 3-MA, which is an autophagy inhibitor.

[10] = siATG5, β-mangostin (10 μM) and α-MSH (1 μM), 48 hours
[11] = treatment after 2 days of α-MSH (melanin previously produced)

Cn1cnc(N)c2ncnc1-2 [3-methyladenine]
influence on melanin content [1]: starts to increase again | effect on the suppressed tyrosinase expression induced by β-mangostin (tyrosinase [2]): inhibited | effect on the suppressed expression of p62 and PMEL induced by β-mangostin [3]: inhibit the suppressed expression

CC(C)C[C@@H](C=O)NC(=O)[C@H](CC(C)C)NC(=O)[C@H](CC(C)C)NC(=O)OCc1ccccc1 [MG132] (Cbz-Leu-Leu-Leu-aldehyde)
influence on melanin content [1]: no influence | influence on L-DOPA oxidation (tyrosinase [4]; co-treatment of inhibitor with β-mangostin and α-MSH): no influence | tyrosinase expression amount (tyrosinase [2]; co-treatment of inhibitor with β-mangostin and α-MSH (proteasome dependence)): did not increase

COc1c(O)cc2oc3cc(O)c(CC=C(C)C)c(O)c3c(=O)c2c1CC=C(C)C [α-mangostin]
cytotoxicity (cell viability, MTT) [5]: potent cytotoxicity | melanin content reduction [1]: about 20%

CCN(CC)CCCC(C)Nc1ccnc2cc(Cl)ccc12 (centres unmarked) [chloroquine, reference compound]
effect on the suppressed tyrosinase expression induced by β-mangostin (tyrosinase [2]): inhibited | effect on the suppressed expression of p62 and PMEL induced by β-mangostin [3]: inhibit the suppressed expression

CC(C)=CCc1c(O)cc2oc3cc(O)c(O)c(CC=C(C)C)c3c(=O)c2c1O [γ-mangostin]
change in melanin content [1]: further increased the melanin content

COc1cc2oc3cc(O)c(OC)c(CC=C(C)C)c3c(=O)c2c(O)c1CC=C(C)C [β-mangostin]
cell pellet color [6]: changed from black color to white color | change in melanin content [1]: effectively reduced | melanin content reduction [1]: ~40% | melanin content level reduced by β-mangostin, after knockdown of ATG5 [1, 10]: increased again | oxidation level of L-DOPA (tyrosinase [4]; co-treatment with α-MSH, concentration dependent): effectively reduced | expression amount of tyrosinase induced by α-MSH (tyrosinase [2]; RT-PCR and Western blotting, B16F10 cells): effectively lowered | expression of tyrosinase reduced by β-mangostin, after knockdown of ATG5 (tyrosinase [2]; [10]): increased again | expression amount of tyrosinase (tyrosinase [2]; [11]): lower a significant expression amount | expression amount of TRP-1 induced by α-MSH [7]: effectively lowered | expression of p62 and PMEL reduced by β-mangostin, after knockdown of ATG5 [3, 10]: increased again | expression amount of PMEL [3, 11]: lower a significant expression amount | number of red spots (mRFP-EGFP-LC3B) [8]: increased | total number of spots (mRFP-EGFP-LC3B) [8]: decreased | content of previously formed melanin [9]: lower effectively

CO/C1=C\C(C)=C\[C@@H](C)[C@@H](O)[C@@H](C)C/C(C)=C/C=C/[C@H](OC)[C@@H]([C@@H](C)[C@@H](O)[C@H](C)[C@@]2(O)C[C@@H](O)[C@H](C)[C@@H](C(C)C)O2)OC1=O [bafilomycin A1]
effect on the suppressed tyrosinase expression induced by β-mangostin (tyrosinase [2]): inhibits
